Experimental data: US20040175768A1, “Methods of biosensing using fluorescent polymers and quencher-tether-ligand bioconjugates” (priority 2002, published 2004)

What was measured:
[1] = test system: PNA-Capture; experiment: Mismatch analysis with microsphere sensor loaded with PNA-based capture strand (FIG. 8); type: binding; settings: competition with DNA-QTL for PNA-Cap; 40° C., total well volume 200 μL
Method: The approach used in this example involves the competition of quencher labeled target with target for a complementary capture strand on the surface of sensing microspheres.
FIG. 8 is a graph showing mismatch analysis with a microsphere sensor loaded with a PNA-based capture strand (denoted “PNA-Cap”) having a structure shown below. The experiments were performed at 40° C. with a total well volume of 200 μL.

[2] = test system: BSEC-3
[3] = test system: BSEC-1
[4] = molecular target: T1, β-secretase enzyme (Homo sapiens, UniProt P56817); settings: 30 minutes at CRT, Sensor SS, excitation 440 nm, emission 530 nm
Method: A QTL solution sensor (“Sensor SS”) was prepared by mixing together 56.5 nmol of Avidin (Biotin binding protein, BBP) and 848 nmol of biotinylated PPE polymer (1) in a total volume of 11.3 mL and incubating at CRT for 24 hours. The polymer and the BBP combine with each other through the biotin-avidin interaction to form stable entities. The solution sensor thus prepared was diluted appropriately with buffer at the beginning of each experiment. The structure of polymer (1) is shown below: [drawing 4]
To 5 μL of a 400 nM solution of BSEC-1 (structure shown below) in assay buffer in a 384-well plate was added 30 ng of β-secretase enzyme dissolved in 5 μL of assay buffer.
The mixture was made in triplicate and incubated for 30 minutes at CRT. The control wells contained only peptide and no enzyme. After incubation, a 100-fold dilution of the above solution sensor was added at 20 μL to each well. The plate was shaken inside the microplate reader and the wells were probed by exciting the polymer at 440 nm and measuring the emission intensity at 530 nm using a 475 nm cut-off filter. […] The difference in fluorescence was a measure of enzyme activity.

[5] = molecular target: T1, β-secretase enzyme; settings: 30 minutes at CRT, Sensor YY, excitation 440 nm, emission 576 nm
Method: The resulting solution sensor (“Sensor YY”) was made at the beginning of each experiment by incubating a 200-fold dilution of the master stock of “Sensor SS” with BRPE in a ratio that would provide 250 fmol of the latter in 40 μL of the mixture. To 5 μL of a 300 nM solution of BSEC-3 in assay buffer was added 30 ng of β-secretase enzyme in 5 μL of assay buffer. BSEC-3 has a polypeptide structure as set forth above. After incubating the control and sample mixtures for 30 minutes at CRT, 40 μL of the doped solution sensor (Sensor YY) was added to each well. The plate was shaken inside the plate reader for 60 seconds and the wells were probed for fluorescence intensity by exciting the polymer at 440 nm and measuring the emission intensity at 576 nm using a 475 nm cut-off filter. […] This observed difference was a measure of enzyme activity.

T1 sequence (P56817 46-501): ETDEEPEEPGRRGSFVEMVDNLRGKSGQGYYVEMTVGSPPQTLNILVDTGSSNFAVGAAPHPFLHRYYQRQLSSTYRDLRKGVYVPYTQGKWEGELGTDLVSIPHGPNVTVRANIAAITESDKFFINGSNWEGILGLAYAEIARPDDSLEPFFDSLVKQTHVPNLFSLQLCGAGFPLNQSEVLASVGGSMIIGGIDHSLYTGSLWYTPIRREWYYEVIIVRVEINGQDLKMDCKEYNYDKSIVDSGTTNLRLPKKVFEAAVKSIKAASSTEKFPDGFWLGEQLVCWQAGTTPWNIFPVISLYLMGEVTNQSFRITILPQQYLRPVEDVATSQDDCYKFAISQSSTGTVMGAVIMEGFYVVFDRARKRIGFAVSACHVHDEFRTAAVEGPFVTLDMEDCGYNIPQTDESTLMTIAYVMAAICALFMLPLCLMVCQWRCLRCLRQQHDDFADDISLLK

## 5′-TGCATTTTTAATGGTATTTA-3′ (TGCATTTTTAATGGTATTTA; listed as DNA, chemistry not fully specified; the letters are possibly those of the target site) [perfect complement target]
[1]
  relative fluorescence with increasing amounts of target: much higher

## β-secretase enzyme
[2]
  average RFU (emission at 576 nm, BRPE-doped Sensor YY) after 30 min incubation of 300 nM BSEC-3 with 30 ng β-secretase; control wells gave 5,200±200: 14500 ± 200 RFU
[3]
  average RFU (polymer emission at 530 nm, Sensor SS) after 30 min incubation of 400 nM BSEC-1 with 30 ng β-secretase; control wells with peptide only gave 5,400±200: 8350 ± 200 RFU

## (QSY7)-T-E-E-O-S-E-V-N-L-D-A-E-F-(K-Biotin)-OH [BSEC-1]
[4]; 5 μL of 400 nM peptide + 30 ng β-secretase
  average RFU value, sample wells containing enzyme: 8,350±200 RFU
[4]; 5 μL of 400 nM peptide, no enzyme
  average RFU value, control wells (only peptide and no enzyme): 5,400±200 RFU

## 5′-TGCATATTTAATGGAATTTA-3′ (TGCATATTTAATGGAATTTA; listed as DNA, chemistry not fully specified; the letters are possibly those of the target site) [AA double mismatch target]
[1]
  relative fluorescence with increasing amounts of target: observed for all targets except

## (AZO)-T-E-E-I-S-E-V-N-L-D-A-E-F-(K-Biotin)-OH [BSEC-3]
[5]; 5 μL of 300 nM peptide + 30 ng β-secretase
  RFU, sample wells containing enzyme: 14,500±200 RFU
[5]; 5 μL of 300 nM peptide, no enzyme
  average RFU value, control wells: 5,200±200 RFU
